Reference: publication PMC6522510 (Nature Communications, 2019)
Like-named read-outs stand apart in the source and are kept apart here.

Experiments:
Parameters in all cases: species or system AML cell lines (8); Primary HTS, single concentration about 10 uM, Cell Titer Glo viability; log10 luminescence, per cent inhibition relative to cycloheximide control
Conditions in all cases: 72 h, relative to cycloheximide control, log10 luminescence, inhibitor
CHRF288-11 = tested on: CHRF288-11
U937 = tested on: U937
CMK = tested on: CMK
MOLM-13 = tested on: MOLM-13
M07e = tested on: M07e
CMS = tested on: CMS
MV4-11 = tested on: MV4-11
ML-2 = tested on: ML-2

SMILES	CHRF288-11 %inh (CHRF288-11) [%]	U937 %inh (U937) [%]	CMK %inh (CMK) [%]	MOLM-13 %inh (MOLM-13) [%]	M07e %inh (M07e) [%]	CMS %inh (CMS) [%]	MV4-11 %inh (MV4-11) [%]	ML-2 %inh (ML-2) [%]	CHRF288-11 %inh (CHRF288-11; CHRF288-11 %inh, 10 µM) [%]	U937 %inh (U937; U937 %inh, 10 µM) [%]	CMK %inh (CMK; CMK %inh, 10 µM) [%]	MOLM-13 %inh (MOLM-13; MOLM-13 %inh, 10 µM) [%]	M07e %inh (M07e; M07e %inh, 10 µM) [%]	CMS %inh (CMS; CMS %inh, 10 µM) [%]	MV4-11 %inh (MV4-11; MV4-11 %inh, 10 µM) [%]	ML-2 %inh (ML-2; ML-2 %inh, 10 µM) [%]
O=C(Nc1ccc(Oc2ccc3[nH]c(NC(=O)c4ccco4)nc3c2)cc1)Nc1cc(C(F)(F)F)ccc1F [SJ000573033-1, T261/93/1]	89.61	42.07	84.76	87.05	35.38	23.46	70.61	20.85								
NS(=O)(=O)c1cccc(-c2cc3ccncc3cc2OCc2ccccc2)c1 [SJ000573034-1, R14712/3/10]	2.678	3.709	-0.5905	2.316	-1.198	1.551	0.8878	0.9825								
COc1cccc(-n2ncc3c(N/N=C/c4ccc(C)cc4)ncnc32)c1 [SJ000573035-1, U19125/70/4]	-5.466	2.182	-4.291	-2.64	-2.359	5.04	-1.749	-2.47								
CNC(=O)c1ncccc1Nc1nc(Nc2cc3c(cc2OC)CCCN3C(=O)CN(C)C)nc2[nH]ccc12 [SJ000573036-1, N6938-65-1]	21.29	17.5	7.075	47.47	30.44	1.812	4.775	45.98								
COc1cccc(-n2ncc3c(N/N=C/c4ccncc4)ncnc32)c1 [SJ000573037-1, U25132/28/11]	6.081	-2.89	-6.6	-2.08	-4.147	4.136	1.553	0.6096								
COc1cc2c(cc1Nc1nc(Nc3ccsc3C(N)=O)c3cc[nH]c3n1)N(C(=O)CN(C)C)CCC2(C)C [SJ000573038-1, N3343-83-1]	128.8	51.73	81.26	92.5	57.48	16.39	43.78	44.68								
C[C@@H](Oc1cc(-n2cnc3ccc(OCC4CCN(C)CC4)cc32)sc1C(N)=O)c1ccccc1Cl [SJ000573039-1, U21976/12/1]	126.6	67.65	58.58	92.23	70.45	55.73	68.81	55.39								
COc1cc(C)c(NC(=O)CN(C)C)cc1Nc1nc(Nc2cccc(F)c2C(N)=O)c2cc[nH]c2n1 [SJ000573040-1, N5326-72-2]	60.84	70.41	111.2	90.07	103.3	31.36	56.47	42.89								
Nc1ccc(C#Cc2cncnc2Nc2ccc(OCc3cccc(F)c3)c(Cl)c2)cc1 [SJ000573041-1, U17810/18/1]	2.448	3.684	13.47	7.505	8.047	3.795	4.494	5.257								
COc1cc(C)c(N(C)C(=O)CN(C)C)cc1Nc1nc(Nc2cccc(F)c2C(N)=O)c2cc[nH]c2n1 [SJ000573042-1, N5326-79-1]	20.31	-0.591	3.967	-1.115	-1.728	1.596	3.146	14.99								
COc1cc2c(cc1Nc1nc(N3CCc4ccccc43)c3cc[nH]c3n1)N(C(=O)CN(C)C)CC2 [SJ000573043-1, N7699-100-1]	128.5	74.23	123.9	9.876	130.8	96.79	75.42	54.96								
COc1cc2c(cc1Nc1nc(Nc3ccsc3C(N)=O)c3cc[nH]c3n1)N(C(=O)CN(C)C)CCC2 [SJ000573044-1, N3343-60-3]	98.1	74.84	100.5	89.42	106	65.93	66.76	41.91								
Nc1ncnc2occ(-c3ccc(NC(=O)Nc4cccc(C(F)(F)F)c4)cc3)c12 [SJ000573045-1, CL210513-033A3]	45.6	26.65	22.69	88.68	17.9	11.5	73.96	6.046								
CCn1c(-c2nonc2N)nc2cncc(C(=O)NCCNC)c21 [SJ000573046-1, FIDE/U1002/66/2]	15.2	25.48	39.87	9.392	12.62	12.48	47.15	17.45								
CCn1c(-c2nonc2N)nc2cncc(C(=O)N3CCNCC3)c21 [SJ000573047-1, TP100582-069A1]	-1.797	1.348	-1.515	0.2835	4.058	1.245	2.106	1.727								
Nc1ncnc2occ(-c3ccc(NC(=O)Nc4cc(C(F)(F)F)ccc4F)cc3)c12 [SJ000573048-1, CL210513-029A3 | T299/89/1 | YF46626-103A2]									26.14	17.4	31.71	82.99	14.83	8.741	68.76	1.043
Nc1ncnc2occ(-c3ccc(NC(=O)Nc4cc(C(F)(F)F)ccc4F)cc3)c12 [SJ000573048-2, CL210513-029A3 | T299/89/1 | YF46626-103A2]									5.114	50.36	82.88	99.82	28.03	10.62	78.92	4.549
Cc1cc(O)cc(C)c1/C=C/c1cncc(-c2nn[nH]n2)c1 [SJ000573052-1, T252/80/1]	-3.388	-3.239	-5.146	-1.521	-1.115	-2.3	-3.299	-1.281								
